According to US10470986B2, “Resorcinol compounds for dermatological use” (Conopco, Inc., priority 2013, dated 2019):

Key:
B16F1 cells = assay: B16 Melanin Assay; assay type: cell-based; details: 1 mM Theophylline stimulated, 72 h, media absorbance 405 nm corrected for viability (Calcein-AM); compound concentration not stated
Procedure: After trypsinization, cells were seeded at 3,000 cells per well in a 96-well plate and allowed to attach overnight. 1 mM Theophylline was used to stimulate melanogenesis, and the compound of interest was added. […] (AbsDMSO/CalceinDMSO-[…]/CalceinDMSO×100. The assay was performed for various compounds described herein, as well as for control compounds 4ER, 4IPR, 4HR, 4CHR, 5MR kojic acid, and hydroquinone. Results are shown in Table 2.

[1] = test system: mushroom tyrosinase (Sigma T3824); assay: Mushroom Tyrosinase Inhibition Assay; assay type: biochemical; details: 10 μM compound, 300 μM L-Tyrosine, 84 units/mL enzyme, pH 6.5, 15 min at room temperature
Procedure: 10 μM compound, 300 μM L-Tyrosine, and 84 units/mL of mushroom tyrosinase (Sigma T3824) were combined into 0.05 M potassium monophosphate buffer at pH=6.5, and incubated for 15 min at room temperature. Absorbance was recorded at 490 nm. % tyrosinase inhibition was calculated as follows: (AbsDMSO−Abscmpd)/AbsDMSO×100. The assay was performed for various compounds described herein, as well as for control compounds 4-ethyl resorcinol (4ER), 4-isopropylresorcinol (4IPR), 4-hexylresorcinol (4HR), 4-cyclohexylresorcinol (4CHR), 5-methylresorcinol (5MR), kojic acid (KA), and hydroquinone (HQ), structures of which are shown below.

MelanoDerm (Mel-300-B) = assay: Mattek 3D Skin Equivalents, MelanoDerm (Mel-300-B) assay; assay type: cell-based, human; details: every other day, 14 days
Description: Many people at different stages of their life are concerned with the degree of pigmentation of their skin and may wish to reduce the skin darkening, or may wish to lighten or even-tone their natural skin color. The mechanism by which skin pigmentation is formed, melanogenesis, is particularly complex and schematically involves the following main steps: Tyrosine→L-Dopa→Dopaquinone→Dopachrome→Melanins. The first two reactions in this series are catalyzed by the enzyme tyrosinase. The activity of tyrosinase is promoted by the action of a-melanocyte stimulating hormone or UV rays. It is well established that a substance has a depigmenting effect if it acts directly on the vitality of the epidermal melanocytes where melanogenesis normally occurs and/or if it interferes with one of the stages in melanin biosynthesis. Pigmentation disorders can take a variety of forms like hyperpigmentation, hypopigmentation, and uneven pigmentation, and include but are not limited to melasma (mask of pregnancy or chloasma), liver spots (which often develop with age) and leukoderma such as vitiligo. […] The degree of pigmentation disorders of the skin in many cases increases with the age of the individuals. Because of the involvement of tyrosinase in melanogensis, tyrosinase inhibition assays are often used to screen potential skin lightening agents. Some mushroom tyrosinases (such as that from Agaricus bisporus) are homologous with mammalian tyrosinase, and mushroom tyrosinase is often used in inhibition assays due to its ready commercial availability. However, the enzyme inhibition assays may not be as good an indicator of activity as assays which are more similar to the intended clinical or cosmetic use, such as the MatTek Corporation's MelanoDerm™ Skin Model (a system which consists of normal, human-derived epidermal keratinocytes and melanocytes formed into a multilayered model of human epidermis).
MelanoDerm (Mel-300-B) assay was conducted according to the manufacturer's instruction (MatTek Corporation). Every other day, the test articles were administered into the EPI-100-NMM-113 culture medium, and positive control, 25 uL of 2% Kojic acid was applied topically. After 14 days, tissue viability and melanocyte morphology were visually verified and tissue melanin was extracted and quantitated against a standard curve. % melanin was calculated as follows: (MelaninDMSO−Melanincomp)/MelaninDMSO×100. The assay was performed for various compounds described herein, as well as for control compounds 4ER, 4IPR, 4HR, 4CHR, kojic acid, and hydroquinone.

Mushroom Tyrosinase (% remaining enzyme activity), % TYR Activity [1] [%] | Compound | B16 Media Melanin (% Melanin), % Melanin B16 (B16F1 cells) [%] | MatTek Assay (% Melanin), % Melanin 3D EpiDerm (MelanoDerm (Mel-300-B); 10 μM in culture medium) [%] | MatTek Assay (% Melanin), % Melanin 3D EpiDerm (MelanoDerm (Mel-300-B); 30 μM in culture medium) [%]
100 | Cc1cc(O)cc(O)c1 [Compound 5MR, 5-methylresorcinol, reference compound] | 100 |  | 
 | Cc1cc(O)cc(O)c1C(C)C [4,5IPMR, 4-isopropyl-5-methylbenzene-1,3-diol] | 71 | 102 | 72
 | Cc1cc(O)cc(O)c1C(C)c1ccccc1 (stereo not drawn) [4,5PEMR, 4-(1-phenylethyl)-5-methylbenzene-1,3-diol] | 87 | 98 | 62
10 | CCCCCCc1c(C)cc(O)cc1O [4,5HMR, 4-hexyl-5-methylbenzene-1,3-diol] | 78 | 77 | 68
93 | CCc1c(C)cc(O)cc1O [4,5EMR, 4-ethyl-5-methylbenzene-1,3-diol] | 69 | 102 | 79
100 | CCC(C)c1c(C)cc(O)cc1O (stereo not drawn) [4,5sBMR, 4-sec-butyl-5-methylbenzene-1,3-diol] | 76 | 75 | 67
 | Cc1cc(O)cc(O)c1CC(F)(F)F [4,5TFEMR, 4-(2,2,2-trifluoroethyl)-5-methylbenzene-1,3-diol] | 90 | 81 | 72
71 | Cc1cc(O)cc(O)c1C1CCCC1 [4,5CPMR, 4-cyclopentyl-5-methylbenzene-1,3-diol] | 61 | 65 | 55

Compound | Mushroom Tyrosinase (% remaining enzyme activity), % TYR Activity [1] [%] | B16 Media Melanin (% Melanin), % Melanin B16 (B16F1 cells) [%] | MatTek Assay (% Melanin), % Melanin 3D EpiDerm (MelanoDerm (Mel-300-B); 10 μM in culture medium) [%] | MatTek Assay (% Melanin), % Melanin 3D EpiDerm (MelanoDerm (Mel-300-B); 30 μM in culture medium) [%]
Oc1cc(O)c(C2CCCCC2)c(F)c1 [4,5EFR, 4-cyclohexyl-5-fluorobenzene-1,3-diol] | 3 | 87 |  | 
Cc1cc(O)cc(O)c1C1CCCCC1 [4,5CHMR, 4-cyclohexyl-5-methylbenzene-1,3-diol] | 22 | 58 | 66 | 44
Oc1cc(O)c(C2CCCCC2)c(C(F)(F)F)c1 [4,5CHTFMR] | 100 | 65 | 89 | 
